Patent publication US10000451B2, “MAP4K4 (HGK) inhibitors” (SRI INTERNATIONAL, priority 2015, dated 2018)
Blank lines part the entries; values can stand above or below the compound they belong to.

How the values were obtained:
MAP4K4 = MAP4K4 (Homo sapiens, UniProt O95819); experiment: MAP4K4 kinase assay (in-house); format: biochemical
Source text: Signaling pathways mediating anticancer activity. […] We established the MAP4K4 kinase assay in-house and confirmed that the compounds are indeed potent MAP4K4 inhibitors.

BT549 = experiment: Breast cancer cell line growth inhibition; format: cell-based; settings: Homo sapiens, BT-549; BT549, triple negative; read-out: IC50 against breast cancer cell lines
Source text: (§1) Generally, their potency is positively correlated with MAP4K4 expression in cancer cell lines.

HS578T = experiment: Breast cancer cell line growth inhibition; format: cell-based; settings: Homo sapiens, Hs-578T, triple negative, read-out: IC50 against breast cancer cell lines
Source text: as §1

MCF-7 = experiment: Breast cancer cell line growth inhibition; format: cell-based; settings: Homo sapiens, MCF7; MCF-7, ER (+); read-out: IC50 against breast cancer cell lines
Source text: as §1

MDA-MB-231 = experiment: Breast cancer cell line growth inhibition; format: cell-based; settings: Homo sapiens; MDA-MB-231, triple negative; read-out: IC50 against breast cancer cell lines
Source text: as §1

T47D = experiment: Breast cancer cell line growth inhibition; format: cell-based; settings: Homo sapiens, ER (+), read-out: IC50 against breast cancer cell lines
Source text: as §1

DU-145 = experiment: Prostate cancer cell proliferation assay; format: cell-based; settings: Homo sapiens; DU-145, 72 hours; read-out: IC50 against prostate cancer cell lines
Source text: (§2) The dose-response curves of cell growth inhibition were consistent.
(§3) Cell proliferation assays.

LNCaP = experiment: Prostate cancer cell proliferation assay; format: cell-based; settings: Homo sapiens, 72 hours, read-out: IC50 against prostate cancer cell lines
Source text: as §2, §3

PC-3 = experiment: Prostate cancer cell proliferation assay; format: cell-based; settings: Homo sapiens; PC-3, 72 hours; read-out: IC50 against prostate cancer cell lines
Source text: as §2, §3

A498 = experiment: Activity against cancer cell lines; format: cell-based; settings: Homo sapiens
Source text: (§4) Exemplary data is shown below.

ACHN = experiment: Activity against cancer cell lines; format: cell-based; settings: Homo sapiens
Source text: as §4

ADRRES = experiment: Activity against cancer cell lines; format: cell-based
Source text: as §4

CAKI1 = experiment: Activity against cancer cell lines; format: cell-based; settings: Homo sapiens, CAKI-1
Source text: as §4

HCT15 = experiment: Activity against cancer cell lines; format: cell-based; settings: Homo sapiens, HCT-15
Source text: as §4

HL60 = experiment: Activity against cancer cell lines; format: cell-based
Source text: as §4

LOXIMVI = experiment: Activity against cancer cell lines; format: cell-based; settings: Homo sapiens, LOX IMVI
Source text: as §4

M14 = experiment: Activity against cancer cell lines; format: cell-based; settings: Homo sapiens
Source text: as §4

MCF7 = experiment: Activity against cancer cell lines; format: cell-based; settings: Homo sapiens
Source text: as §4

MDAMB435 = experiment: Activity against cancer cell lines; format: cell-based; settings: Homo sapiens, MDA-MB-435
Source text: as §4

MOLT4 = experiment: Activity against cancer cell lines; format: cell-based; settings: Homo sapiens, MOLT-4
Source text: as §4

NCIH522 = experiment: Activity against cancer cell lines; format: cell-based; settings: Homo sapiens, NCI-H522
Source text: as §4

OVCAR4 = experiment: Activity against cancer cell lines; format: cell-based
Source text: as §4

RXF393 = experiment: Activity against cancer cell lines; format: cell-based; settings: Homo sapiens, RXF 393
Source text: as §4

SF295 = experiment: Activity against cancer cell lines; format: cell-based; settings: Homo sapiens, SF-295
Source text: as §4

SF539 = experiment: Activity against cancer cell lines; format: cell-based; settings: Homo sapiens, SF-539
Source text: as §4

SKMEL2 = experiment: Activity against cancer cell lines; format: cell-based; settings: Homo sapiens, SK-MEL-2
Source text: as §4

SKMEL5 = experiment: Activity against cancer cell lines; format: cell-based; settings: Homo sapiens, SK-MEL-5
Source text: as §4

SNB75 = experiment: Activity against cancer cell lines; format: cell-based; settings: Homo sapiens, SNB-75, SNB75
Source text: as §4

UO31 = experiment: Activity against cancer cell lines; format: cell-based; settings: Homo sapiens, UO-31
Source text: as §4

[1] = system: PC-3 prostate cancer xenografts; experiment: Antitumor activity in PC-3 xenografts; format: in vivo; settings: nude mice
Method: In vivo efficacy studies: antitumor and antimetastatic effects against androgen-insensitive prostate cancer. Antitumor activity was tested in nude mice bearing aggressive, androgen-independent PC-3 prostate cancer xenografts. Docetaxel, a standard treatment for metastatic prostate cancer, was included in the study as a positive control. Docetaxel was administered at its maximum tolerated dose (MTD) via intraperitoneal (IP) (Q3Dx2; Monday, Friday). Mice were orally treated with compound in 0.5% HPC with 4 different treatment regimens. The control group was treated with vehicle (0.5% HPC) only. Treatment was initiated when average tumor volume reached 100 mm^3 (10 mice per group).
The compounds show a significant dose-dependent growth inhibition of prostate tumor. Docetaxel at its MTD (7.5 mg/kg; Q3Dx2) produces only 10-15% growth inhibition. […] Treatment with representative compounds (12.5, 25 and 50 mg/kg/day) caused a significant dose-dependent growth reduction of PC-3 tumors.

Chain of MAP4K4 (O95819 whole entry): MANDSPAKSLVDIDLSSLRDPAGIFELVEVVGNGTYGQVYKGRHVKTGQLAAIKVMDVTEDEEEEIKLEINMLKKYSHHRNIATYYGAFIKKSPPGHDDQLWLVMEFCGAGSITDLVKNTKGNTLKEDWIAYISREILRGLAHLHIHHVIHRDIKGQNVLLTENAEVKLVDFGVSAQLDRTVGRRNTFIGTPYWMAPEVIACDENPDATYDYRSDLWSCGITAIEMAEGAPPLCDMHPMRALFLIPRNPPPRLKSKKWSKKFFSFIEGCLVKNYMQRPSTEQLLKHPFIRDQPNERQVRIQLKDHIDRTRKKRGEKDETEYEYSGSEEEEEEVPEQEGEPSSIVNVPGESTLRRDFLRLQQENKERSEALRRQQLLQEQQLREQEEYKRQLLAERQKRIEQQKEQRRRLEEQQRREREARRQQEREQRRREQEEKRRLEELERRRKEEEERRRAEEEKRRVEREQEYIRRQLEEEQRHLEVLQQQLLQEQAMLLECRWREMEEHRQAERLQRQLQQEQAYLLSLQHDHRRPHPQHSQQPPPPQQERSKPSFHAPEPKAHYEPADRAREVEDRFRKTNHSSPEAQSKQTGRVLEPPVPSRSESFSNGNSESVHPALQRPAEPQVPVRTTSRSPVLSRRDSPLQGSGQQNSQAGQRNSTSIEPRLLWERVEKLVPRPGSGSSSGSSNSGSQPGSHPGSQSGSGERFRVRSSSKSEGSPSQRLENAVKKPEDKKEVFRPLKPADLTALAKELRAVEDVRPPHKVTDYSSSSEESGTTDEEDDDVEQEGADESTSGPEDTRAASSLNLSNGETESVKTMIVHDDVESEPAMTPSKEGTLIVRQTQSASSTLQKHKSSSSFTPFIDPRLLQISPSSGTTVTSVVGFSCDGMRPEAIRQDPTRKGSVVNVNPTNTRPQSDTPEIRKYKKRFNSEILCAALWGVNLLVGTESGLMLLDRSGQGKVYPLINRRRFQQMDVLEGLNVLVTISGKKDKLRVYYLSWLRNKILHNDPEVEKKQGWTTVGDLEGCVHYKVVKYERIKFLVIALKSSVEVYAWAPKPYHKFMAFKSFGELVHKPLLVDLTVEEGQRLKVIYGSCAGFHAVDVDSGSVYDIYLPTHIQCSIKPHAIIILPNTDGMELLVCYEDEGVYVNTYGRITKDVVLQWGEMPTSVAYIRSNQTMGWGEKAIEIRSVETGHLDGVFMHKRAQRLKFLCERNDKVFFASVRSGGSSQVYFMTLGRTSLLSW

- IC50 (MAP4K4): 380 nM
Structure (SMILES): COc1ccc2[nH]c(C(=O)c3ccc4[nH]cc(C)c4c3)cc2c1 [Cmpd 4, (5-methoxy-1H-indol-2-yl)(3-methyl-1H-indol-5-yl)methanone]

- IC50 (MAP4K4): 300 nM
Structure (SMILES): COc1ccc2[nH]c(C(=O)c3ccc4[nH]ccc4c3)c(C)c2c1 [Cmpd 5, (1H-indol-5-yl)(5-methoxy-3-methyl-1H-indol-2-yl)methanone]

- IC50 (MAP4K4): 1700 nM
Structure (SMILES): COc1ccc2[nH]c(C(=O)c3ccc4[nH]cc(Cl)c4c3)cc2c1 [Cmpd 9, (3-chloro-1H-indol-5-yl)(5-methoxy-1H-indol-2-yl)methanone]

- IC50 (MAP4K4): 1000 nM
Structure (SMILES): Cc1c[nH]c2ccc(C(=O)c3cc4cc(O)ccc4[nH]3)cc12 [Cmpd 12, (5-hydroxy-1H-indol-2-yl)(3-methyl-1H-indol-5-yl)methanone]

- IC50 (BT549): 17 nM
- IC50 (HS578T): 16 nM
- IC50 (MCF-7): 123 nM
- IC50 (MDA-MB-231): 21 nM
- IC50 (T47D): 30 nM
- IC50 (DU-145): 35 nM
- IC50 (LNCaP): 21 nM
- IC50 (PC-3): 17 nM
Structure (SMILES): COc1cc2cc(C(=O)c3ccc4[nH]ccc4c3)[nH]c2cc1OC [Cmpd 15, (5,6-dimethoxy-1H-indol-2-yl)(1H-indol-5-yl)methanone]

- IC50 (MAP4K4): 260 nM
- IC50 (BT549): 9 nM
- IC50 (HS578T): 10 nM
- IC50 (MCF-7): 53 nM
- IC50 (MDA-MB-231): 10 nM
- IC50 (T47D): 17 nM
- IC50 (DU-145): 14 nM
- IC50 (LNCaP): 9 nM
- IC50 (PC-3): 6 nM
Structure (SMILES): COc1ccc2[nH]c(C(=O)c3ccc4[nH]ncc4c3)cc2c1 [Cmpd 17, (1H-indazol-5-yl)(5-methoxy-1H-indol-2-yl)methanone]

- IC50 (MAP4K4): 9 nM
Structure (SMILES): CCc1n[nH]c2ccc(C(=O)c3cc4cc(OC)ccc4[nH]3)cc12 [Cmpd 19, (3-ethyl-1H-indazol-5-yl)(5-methoxy-1H-indol-2-yl)methanone]

- IC50 (MAP4K4): 310 nM
Structure (SMILES): COc1ccc2[nH]c(C(=O)c3ccc4[nH]nc(Cl)c4c3)cc2c1 [Cmpd 20, (3-chloro-1H-indazol-5-yl)(5-methoxy-1H-indol-2-yl)methanone]

- IC50 (MAP4K4): 100 nM
Structure (SMILES): COc1ccc2[nH]c(C(=O)c3ccc4[nH]nc(F)c4c3)cc2c1 [Cmpd 21, (3-fluoro-1H-indazol-5-yl)(5-methoxy-1H-indol-2-yl)methanone]

- IC50 (MAP4K4): 21000 nM
Structure (SMILES): COc1ccc2[nH]c(C(=O)c3ccc4[nH]nc(CN5CCOCC5)c4c3)cc2c1 [Cmpd 22, (5-methoxy-1H-indol-2-yl)(3-(morpholinomethyl)-1H-indazol-5-yl)methanone]

- IC50 (MAP4K4): 410 nM
- IC50 (BT549): 23 nM
- IC50 (HS578T): 29 nM
- IC50 (MCF-7): 114 nM
- IC50 (MDA-MB-231): 28 nM
- IC50 (T47D): 44 nM
- IC50 (DU-145): 53 nM
- IC50 (LNCaP): 28 nM
- IC50 (PC-3): 20 nM
Structure (SMILES): COc1ccc2[nH]c(C(=O)c3ccc4[nH]ncc4c3)c(Cl)c2c1 [Cmpd 23, (3-chloro-5-methoxy-1H-indol-2-yl)(1H-indazol-5-yl)methanone]

- IC50 (MAP4K4): 12000 nM
Structure (SMILES): COc1ccc2[nH]c(C(=O)c3ccc4[nH]ncc4c3)cc2c1Cl [Cmpd 24, (4-chloro-5-methoxy-1H-indol-2-yl)(1H-indazol-5-yl)methanone]

- IC50 (MAP4K4): 650 nM
Structure (SMILES): COc1cccc2cc(C(=O)c3ccc4[nH]nc(C)c4c3)[nH]c12 [Cmpd 28, (7-methoxy-1H-indol-2-yl)(3-methyl-1H-indazol-5-yl)methanone]

- IC50 (MAP4K4): 650 nM
Structure (SMILES): COc1cccc2[nH]c(C(=O)c3ccc4[nH]nc(C)c4c3)cc12 [Cmpd 29, (4-methoxy-1H-indol-2-yl)(3-methyl-1H-indazol-5-yl)methanone]

- IC50 (MAP4K4): 13 nM
Structure (SMILES): COc1cc2cc(C(=O)c3ccc4[nH]nc(C)c4c3)[nH]c2cn1 [Cmpd 31, (5-methoxy-1H-pyrrolo[2,3-c]pyridin-2-yl)(3-methyl-1H-indazol-5-yl)methanone]

- IC50 (MAP4K4): 46 nM
Structure (SMILES): COc1ccc2[nH]c(C(=O)c3cnc4[nH]ccc4c3)cc2c1 [Cmpd 33, (5-methoxy-1H-indol-2-yl)(1H-pyrrolo[2,3-b]pyridin-5-yl)methanone]

- IC50 (MAP4K4): 7500 nM
Structure (SMILES): COc1ccc2[nH]c(C(=O)c3ccc4[nH]c(C(F)(F)F)nc4c3)cc2c1 [Cmpd 35, (5-methoxy-1H-indol-2-yl)(2-(trifluoromethyl)-1H-benzo[d]imidazol-5-yl)methanone]

- IC50 (MAP4K4): 570 nM
Structure (SMILES): COc1ccc2[nH]c(C(=O)c3ccc4[nH]nnc4c3)cc2c1 [Cmpd 36, (1H-benzo[d][1,2,3]triazol-5-yl)(5-methoxy-1H-indol-2-yl)methanone]

- IC50 (A498): 330 nM
- IC50 (ACHN): 760 nM
- IC50 (ADRRES): 64 nM
- IC50 (CAKI1): 67 nM
- IC50 (HCT15): 68 nM
- IC50 (HL60; HL60): 78 nM
- IC50 (HL60; Homo sapiens, HL-60, HL60): 81 nM
- IC50 (LOXIMVI): 440 nM
- IC50 (M14): 110 nM
- IC50 (MCF7): 85 nM
- IC50 (MDAMB435): 66 nM
- IC50 (MOLT4): 120 nM
- IC50 (NCIH522): 100 nM
- IC50 (OVCAR4; Homo sapiens, OVCAR-4, OVCAR4): 150 nM
- IC50 (OVCAR4; OVCAR4): 110 nM
- IC50 (RXF393): 140 nM
- IC50 (SF295): 250 nM
- IC50 (SF539): 170 nM
- IC50 (SKMEL2): 580 nM
- IC50 (SKMEL5): 210 nM
- IC50 (SNB75): 110 nM
- IC50 (UO31): 690 nM
Structure (SMILES): COc1ccc2[nH]c(C(=NO)c3ccc4[nH]ccc4c3)cc2c1 [Cmpd 37, (1H-indol-5-yl)(5-methoxy-1H-indol-2-yl)methanone oxime]

Structure (SMILES): CC(=O)O[C@@]12CO[C@@H]1C[C@H](O)[C@@]1(C)C(=O)[C@H](O)C3=C(C)[C@@H](OC(=O)[C@H](O)[C@@H](NC(=O)OC(C)(C)C)c4ccccc4)C[C@@](O)([C@@H](OC(=O)c4ccccc4)[C@H]21)C3(C)C [Docetaxel, reference compound]
- IC50 (DU-145): 72 nM
- IC50 (LNCaP): 31 nM
- IC50 (PC-3): 95 nM
- tumor growth inhibition ([1]; PC-3 xenografts, MTD 7.5 mg/kg IP Q3Dx2): 10-15%
- lethal toxicity ([1]; 7.5 mg/kg IP, after the 4th injection): mice died on Day 13 due to lethal toxicity

- IC50 (BT549): 151 nM
- IC50 (HS578T): 148 nM
- IC50 (MCF-7): 156 nM
- IC50 (MDA-MB-231): 153 nM
- IC50 (T47D): 152 nM
Structure (SMILES): CC(=O)O[C@H]1C(=O)[C@@]2(C)[C@H]([C@H](OC(=O)c3ccccc3)[C@]3(O)C[C@H](OC(=O)[C@H](O)[C@@H](NC(=O)c4ccccc4)c4ccccc4)C(C)=C1C3(C)C)[C@]1(OC(C)=O)CO[C@@H]1C[C@@H]2O [Paclitaxel, reference compound]
